# In patent US10258583B2, “Extended release liquid compositions of guanfacine” (SUN PHARMACEUTICAL INDUSTRIES LIMITED, priority 2014, dated 2019):
# Legend:
# [1] = cited from earlier work
# [2] = Osmolality measurements (Osmomat 030-D); assay type: physicochemical; conditions: samples of composition prepared as per Example 13
# Excerpt: The term “osmolality,” as used herein, means the number of moles of any water-soluble compound per kg of the carrier. In the present invention, the osmolality may be measured according to known methods, such as using a Vapor pressure Osmometer, a Colloid Osmometer, or a Freezing Point Depression Osmometer such as Osmomat® 030-D or Osmomat® 3000, in particular by a Freezing Point Depression Osmometer. In the present invention, pharmaceutically acceptable carrier has an osmolality of about 1 osmol/kg or more than about 1 osmol/kg of the pharmaceutically acceptable carrier.
# The term “osmolality ratio,” as used herein, means the ratio of osmolality of the external phase to the osmolality of the internal phase. […]
# Xylitol, microcrystalline cellulose-sodium carboxymethyl cellulose, xanthan gum, strawberry flavor, sucralose, citric acid, methyl paraben, propyl paraben and colloidal silicon dioxide, purified water were mixed as per Example 13. This suspension was then filtered and diluted with purified water, and the osmolality of the external phase was measured using Osmomat 030-D.
# Various solutions having various concentrations of sodium chloride were prepared as per Examples (A)-(D). The osmolalities of these solutions were measured using Osmomat 030-D.
# Sodium chloride was dissolved in purified water as per Examples A-D. The osmolality of these solutions were measured using Osmomat 030-D.
# [3] = pH dependent degradation profile - solution state stability; assay type: physicochemical
# Excerpt: Guanfacine, particularly guanfacine hydrochloride, is found to degrade at high pH values. […] One of the major impurity of guanfacine is 2,6-dichlorophenyl acetic acid. [table]
smiles,measurement,setting,value
"Cl.N=C(N)NC(=O)Cc1c(Cl)cccc1Cl [Guanfacine hydrochloride, N-amidino-2-(2,6-dichlorophenyl)-acetamide monohydrochloride]",solubility in acetone,[1]; acetone,slightly soluble
same,solubility in alcohol,[1]; alcohol,sparingly soluble
same,solubility in water,[1]; water,approximately 1 mg/mL
same,Osmolality,[2],0.006 OSMOL/Kg
same,% Assay,"[3]; pH 1.2, 0 hours",101.2%
same,% Assay,"[3]; pH 1.2, 1 hour",101.2%
same,% Assay,"[3]; pH 1.2, 4 hours",101.2%
same,% Assay,"[3]; pH 1.2, 8 hours",101.1%
same,% Assay,"[3]; pH 1.2, 16 hours",101.6%
same,% Assay,"[3]; pH 1.2, 24 hours",101.4%
same,% Assay,"[3]; pH 2.2, 0 hours",100.3%
same,% Assay,"[3]; pH 2.2, 1 hour",100.5%
same,% Assay,"[3]; pH 2.2, 4 hours",100.4%
same,% Assay,"[3]; pH 2.2, 8 hours",100.4%
same,% Assay,"[3]; pH 2.2, 16 hours",100.3%
same,% Assay,"[3]; pH 2.2, 24 hours",100.2%
same,% Assay,"[3]; pH 4.5, 0 hours",99.4%
same,% Assay,"[3]; pH 4.5, 1 hour",99.0%
same,% Assay,"[3]; pH 4.5, 4 hours",98.7%
same,% Assay,"[3]; pH 4.5, 8 hours",98.9%
same,% Assay,"[3]; pH 4.5, 16 hours",98.7%
same,% Assay,"[3]; pH 4.5, 24 hours",98.5%
same,% Assay,"[3]; pH 6.8, 0 hours",99.5%
same,% Assay,"[3]; pH 6.8, 1 hour",99.0%
same,% Assay,"[3]; pH 6.8, 4 hours",97.2%
same,% Assay,"[3]; pH 6.8, 8 hours",93.7%
same,% Assay,"[3]; pH 6.8, 16 hours",86.3%
same,% Assay,"[3]; pH 6.8, 24 hours",79.9%
same,% Assay,"[3]; pH 7.5, 0 hours",100.9%
same,% Assay,"[3]; pH 7.5, 1 hour",99.9%
same,% Assay,"[3]; pH 7.5, 4 hours",97.1%
same,% Assay,"[3]; pH 7.5, 8 hours",92.2%
same,% Assay,"[3]; pH 7.5, 16 hours, listed as guanfacine, monohydrochloride",84%
same,% Assay,"[3]; pH 7.5, 16 hours, monohydrochloride",84.0%
same,% Assay,"[3]; pH 7.5, 24 hours",77.5%
